Test system: phagocytes
Experiment: Luminol-amplified chemiluminescence (CL) kinetics of zymosan-stimulated diluted whole blood
Assay type: cell-based, human
Method: Zymosan-A (Sigma Chemical Co.) was used as a phagocyte-stimulating agent. It was opsonized for 30 min at 37° C. in sample serum (20 mg/mL) and washed twice in 0.9% NaCl. The zymosan suspension in Krebs-Ringer phosphate medium (KRP) was prepared immediately prior to use. KRP was composed of 119 mmol/L NaCl, 4.75 mmol/L KCl, 0.420 mmol/L CaCl2, 1.19 mmol/L MgSO4.7H2O, 16.6 mmol/L sodium phosphate buffer, pH 7.4 and 5.56 mmol/L glucose (De Sole et al., 1983). Luminol (Sigma Chemical Co.) was used to amplify the chemiluminescence activity. A luminol stock solution (10 mmol/L in dimethyl sulfoxide) was stored in a dark place at room temperature and diluted 1:10 (v/v) with KRP just before use. In all experiments, the final concentration of luminol was 100 μmol/L. In some experiments formylmethionyl-leucyl-phenylalanine (fMLP—Sigma Chemical Co.) was used for priming (5 nM) of CL emitting cells. All reagents used were of analytical grade and the water was glass-distilled.
Diluted whole blood (1:100 v/v final dilution) was used to avoid artifacts due to the isolation of PMNs. Peripheral venous blood from human adults was collected in heparinized tubes (20 U/mL). Samples with a total volume of 200 μL contained diluted whole fresh blood, luminol and zymosan in KRP. […] After diluted blood was added, the sample content was mixed and CL measured. […]

SMILES	phagocytosis-related parts of the CL response (diluted whole blood preincubated at 37° C. for 5 minutes with 1.5 mmol/liter of aspirin, FIG. 6A)	relative contribution of extracellularly and intracellularly produced ROS (derived kinetic parameters) (diluted whole blood preincubated at 37° C. for 5 minutes with 3 nmol/liter fMLP, FIG. 2)
CC(=O)Oc1ccccc1C(=O)O [aspirin]	significant decrease	–
CSCC[C@H](NC=O)C(=O)N[C@@H](CC(C)C)C(=O)N[C@@H](Cc1ccccc1)C(=O)O [fMLP, N-formylmethionyl leucyl phenylalanine]	–	more significant for the extracellular ROS production
